In patent US5840684A, “Glycopeptide antibiotic derivatives” (Eli Lilly and Company, priority 1995, dated 1998):
Converted amounts (≈) assume the structure as drawn.

Legend:
[1] = system: Staphylococcus aureus S13E; format: cell-based
Experimental: (§1) The MIC's were determined using a standard broth micro-dilution assay.

[2] = system: Staphylococcus aureus SA1199B; format: cell-based
Experimental: as §1

[3] = system: Entercoccus faecium 180-1; assay: broth micro-dilution MIC; format: cell-based
Experimental: as §1

Entercoccus faecium 276 = assay: broth micro-dilution MIC; format: cell-based
Experimental: as §1

[4] = system: Staphylococcus aureus 446; assay: broth micro-dilution MIC; format: cell-based
Experimental: as §1

[5] = system: Staphylococcus aureus 447; assay: broth micro-dilution MIC; format: cell-based
Experimental: as §1

[6] = system: Staphylococcus aureus 489; assay: broth micro-dilution MIC; format: cell-based
Experimental: as §1

[7] = system: Staphylococcus aureus 491; assay: broth micro-dilution MIC; format: cell-based
Experimental: as §1

[8] = system: Staphylococcus aureus SA1199A; assay: broth micro-dilution MIC; format: cell-based
Experimental: as §1

[9] = system: Staphylococcus aureus SA1199; assay: broth micro-dilution MIC; format: cell-based
Experimental: as §1

[10] = system: Staphylococcus aureus X400; assay: broth micro-dilution MIC; format: cell-based
Experimental: as §1

[11] = system: Staphylococcus aureus X778; assay: broth micro-dilution MIC; format: cell-based
Experimental: as §1

[12] = system: Streptococcus pyogenes C203; assay: broth micro-dilution MIC; format: cell-based
Experimental: as §1

Entercoccus faecium 180 = assay: broth micro-dilution MIC; format: cell-based; conditions: Entercoccus faecium 180
Experimental: (§2) The formula I compounds have in vitro and in vivo activity against Gram-positive pathogenic bacteria. The MIC's were determined using a standard broth micro-dilution assay.

Entercoccus faecium 2041 = assay: broth micro-dilution MIC; format: cell-based; conditions: Entercoccus faecium 2041
Experimental: as §2

[13] = system: Enterococcus gallinarum 245; assay: broth micro-dilution MIC; format: cell-based; conditions: Enterococcus gallinarum 245
Experimental: as §2

[14] = system: Staphylococcus epidermidis 270; assay: broth micro-dilution MIC; format: cell-based
Experimental: as §2

[15] = system: Staphylococcus haemolyticus 105; assay: broth micro-dilution MIC; format: cell-based
Experimental: as §2

[16] = system: Staphylococcus haemolyticus 415; assay: broth micro-dilution MIC; format: cell-based
Experimental: as §2

[17] = system: Streptococcus pneumoniae P1; assay: broth micro-dilution MIC; format: cell-based
Experimental: as §2

[18] = system: vancomycin-resistant enterococci; assay: broth micro-dilution, mean geometric MIC; format: cell-based, Enterococcus faecium and Enterococcus faecalis; conditions: enterococci, 24-hour incubation
[19] = system: vancomycin-susceptible enterococci; assay: broth micro-dilution, mean geometric MIC; format: cell-based, Enterococcus faecium and Enterococcus faecalis; conditions: enterococci, 24-hour incubation

Structure (SMILES)	MIC [1] [µg/mL]	MIC [2] [µg/mL]	MIC [3] [µg/mL]	MIC (Entercoccus faecium 276) [µg/mL]	MIC [4] [µg/mL]	MIC [5] [µg/mL]	MIC [6] [µg/mL]	MIC [7] [µg/mL]	MIC [8] [µg/mL]	MIC [9] [µg/mL]	MIC [10] [µg/mL]	MIC [11] [µg/mL]	MIC [12] [µg/mL]	MIC (Entercoccus faecium 180) [µg/mL]	MIC (Entercoccus faecium 2041) [µg/mL]	MIC [13] [µg/mL]	MIC [14] [µg/mL]	MIC [15] [µg/mL]	MIC [16] [µg/mL]	MIC [17] [µg/mL]	other results
CN[C@H](CC(C)C)C(=O)N[C@H]1C(=O)N[C@@H](CC(N)=O)C(=O)N[C@H]2C(=O)N[C@H]3C(=O)N[C@H](C(=O)N[C@H](C(=O)O)c4cc(O)cc(O)c4-c4cc3ccc4O)[C@H](O[C@H]3C[C@](C)(N)[C@@H](O)[C@H](C)O3)c3ccc(c(Cl)c3)Oc3cc2cc(c3O[C@@H]2O[C@H](CO)[C@@H](O)[C@H](O)[C@H]2O[C@H]2C[C@](C)(NCc3cccc(-c4ccccc4)c3)[C@@H](O)[C@H](C)O2)Oc2ccc(cc2Cl)[C@H]1O [Compound 91]	≤ 0.06	0.5 (≈ 0.284 µM)	≤ 0.06	≤ 0.06	0.5 (≈ 0.284 µM)	0.5 (≈ 0.284 µM)	≤ 0.06	1 (≈ 0.569 µM)	≤ 0.06	≤ 0.06	0.5 (≈ 0.284 µM)	≤ 0.06	≤ 0.06	0.5 (≈ 0.284 µM)	≤ 0.06	2 (≈ 1.14 µM)	0.5 (≈ 0.284 µM)	2 (≈ 1.14 µM)	2 (≈ 1.14 µM)	≤ 0.06	mean geometric MIC, Vancomycin Resistant Strains [18]: 2.8 µg/mL; mean geometric MIC, Vancomycin Sensitive Strains [19]: 0.11 µg/mL
CN[C@H](CC(C)C)C(=O)N[C@H]1C(=O)N[C@@H](CC(N)=O)C(=O)N[C@H]2C(=O)N[C@H]3C(=O)N[C@H](C(=O)N[C@H](C(=O)O)c4cc(O)cc(O)c4-c4cc3ccc4O)[C@H](O[C@H]3C[C@](C)(N)[C@@H](O)[C@H](C)O3)c3ccc(c(Cl)c3)Oc3cc2cc(c3O[C@@H]2O[C@H](CO)[C@@H](O)[C@H](O)[C@H]2O[C@H]2C[C@](C)(NCc3ccc(Oc4ccc(C)cc4)cc3)[C@@H](O)[C@H](C)O2)Oc2ccc(cc2Cl)[C@H]1O [Compound 95]	2 (≈ 1.12 µM)	1 (≈ 0.559 µM)	≤ 0.06	0.125 (≈ 0.0699 µM)	0.5 (≈ 0.28 µM)	0.5 (≈ 0.28 µM)	2 (≈ 1.12 µM)	1 (≈ 0.559 µM)	≤ 0.06	0.5 (≈ 0.28 µM)	1 (≈ 0.559 µM)	1 (≈ 0.559 µM)	≤ 0.06	0.5 (≈ 0.28 µM)	≤ 0.06	1 (≈ 0.559 µM)	1 (≈ 0.559 µM)	1 (≈ 0.559 µM)	1 (≈ 0.559 µM)	≤ 0.06	mean geometric MIC, Vancomycin Resistant Strains [18]: 1.7 µg/mL; mean geometric MIC, Vancomycin Sensitive Strains [19]: 0.054 µg/mL
CN[C@H](CC(C)C)C(=O)N[C@H]1C(=O)N[C@@H](CC(N)=O)C(=O)N[C@H]2C(=O)N[C@H]3C(=O)N[C@H](C(=O)N[C@H](C(=O)O)c4cc(O)cc(O)c4-c4cc3ccc4O)[C@H](O[C@H]3C[C@](C)(N)[C@@H](O)[C@H](C)O3)c3ccc(c(Cl)c3)Oc3cc2cc(c3O[C@@H]2O[C@H](CO)[C@@H](O)[C@H](O)[C@H]2O[C@H]2C[C@](C)(NCc3ccc(Oc4ccc(C(C)(C)C)cc4)cc3)[C@@H](O)[C@H](C)O2)Oc2ccc(cc2Cl)[C@H]1O [Compound 96]	1 (≈ 0.546 µM)	1 (≈ 0.546 µM)	0.25 (≈ 0.137 µM)	0.5 (≈ 0.273 µM)	1 (≈ 0.546 µM)	1 (≈ 0.546 µM)	1 (≈ 0.546 µM)	1 (≈ 0.546 µM)	≤ 0.06	2 (≈ 1.09 µM)	2 (≈ 1.09 µM)	1 (≈ 0.546 µM)	≤ 0.06	0.5 (≈ 0.273 µM)	1 (≈ 0.546 µM)	2 (≈ 1.09 µM)	2 (≈ 1.09 µM)	2 (≈ 1.09 µM)	2 (≈ 1.09 µM)	≤ 0.06	mean geometric MIC, Vancomycin Resistant Strains [18]: 1.4 µg/mL; mean geometric MIC, Vancomycin Sensitive Strains [19]: 0.11 µg/mL
